Experimental data from patent US20200297867A1, “SURFACE FUNCTIONALIZATION OF LIPOSOMES AND LIPOSOMAL SPHERICAL NUCLEIC ACIDS (SNAS)” (EXICURE,INC., priority 2016, published 2020).
“Also recorded” adds a separate entry of the source.

How the values were obtained:
[1] = Sterile filtration through 0.22 μm PES syringe filter; type: physicochemical; details: 0.22 μm sterile filter; inferred from HEK hTLR4 activity after filtration
Protocol: (§1) GLA (Avanti Polar Lipids) was resuspended in dimethylsulfoxide (DMSO) at 1 mg/mL. GLA in DMSO was mixed with an aqueous solution of liposomes (L-GLA) or PBS (GLA alone) such that the final DMSO concentration was 2%. DMSO is miscible in aqueous solutions, and allows GLA to condense on the surface of SNAs as the organic solution is diluted. Modulation of GLA functionalized to the surface of liposomes can be achieved by adjusting the ratio of GLA to liposome. The DMSO was removed from the liposomal solution by diafiltration using tangential-flow filtration (TFF) with a hollow fiber filter (750 kDa cut-off). These liposomes which have been surface functionalized with GLA (with a loading of 50 molecules/liposome) may then be further surface modified with other molecules. L-GLA or GLA alone was then sterile filtered through a 0.22 μm PES sterile syringe filter (VWR) to remove any non-functionalized GLA or GLA aggregates.
GLA alone was prepared using the same method used to prepare L-GLA but without the presence of liposomes. Free or unbound GLA will aggregate and cannot pass through a sterile filter.

[2] = molecular target: T1, hTLR4 (Homo sapiens, UniProt O00206+Q9Y6Y9); test: Experiment 4: activation of HEK hTLR4 cells pre- and post-sterile filtration, QuantiBlue; type: cell-based; details: post-sterile filtration through 0.22 μm PES filter; max 15 μM GLA, 1:3 serial dilution, 7 dilutions; 24 hours
T1 construct: expressed in transfected cells; host or cells: HEK huTLR4 (HEK hTLR4) cells
T1 sequence (O00206 24-839): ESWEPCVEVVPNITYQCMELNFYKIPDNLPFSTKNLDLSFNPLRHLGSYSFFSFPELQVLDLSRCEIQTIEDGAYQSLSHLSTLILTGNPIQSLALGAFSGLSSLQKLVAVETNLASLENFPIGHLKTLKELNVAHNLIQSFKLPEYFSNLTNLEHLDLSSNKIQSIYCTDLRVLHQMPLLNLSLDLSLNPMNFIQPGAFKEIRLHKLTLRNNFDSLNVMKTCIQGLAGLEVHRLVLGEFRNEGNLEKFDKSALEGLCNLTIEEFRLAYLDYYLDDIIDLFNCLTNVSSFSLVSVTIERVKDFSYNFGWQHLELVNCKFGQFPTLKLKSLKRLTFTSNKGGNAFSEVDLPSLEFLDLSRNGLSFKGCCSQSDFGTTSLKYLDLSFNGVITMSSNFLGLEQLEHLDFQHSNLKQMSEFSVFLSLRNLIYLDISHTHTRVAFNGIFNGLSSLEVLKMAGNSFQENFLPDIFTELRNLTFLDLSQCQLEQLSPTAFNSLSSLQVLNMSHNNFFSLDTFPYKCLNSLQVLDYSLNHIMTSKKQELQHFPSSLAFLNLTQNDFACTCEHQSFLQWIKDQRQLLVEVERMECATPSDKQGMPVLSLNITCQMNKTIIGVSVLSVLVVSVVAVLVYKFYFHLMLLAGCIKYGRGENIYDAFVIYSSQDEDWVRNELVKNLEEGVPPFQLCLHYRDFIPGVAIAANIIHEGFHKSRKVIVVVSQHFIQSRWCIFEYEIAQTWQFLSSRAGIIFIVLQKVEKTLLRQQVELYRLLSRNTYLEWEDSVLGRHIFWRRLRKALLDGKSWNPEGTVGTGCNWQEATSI
T1 sequence (Q9Y6Y9 17-160 limits assumed): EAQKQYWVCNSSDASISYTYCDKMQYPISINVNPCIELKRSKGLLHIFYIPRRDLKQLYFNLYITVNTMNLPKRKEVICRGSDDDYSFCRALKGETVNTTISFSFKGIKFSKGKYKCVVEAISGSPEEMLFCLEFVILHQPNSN
Protocol: FIG. 4. […] HEK hTLR4 cells were treated with 15 μM of GLA (for each compound tested) with a 1:3 serial dilution for 7 dilutions.
as §1, with “aggregates. […]” for “aggregates.”
QuantiBlue detection media was purchased from Invivogen. […] After development of color using the standard curve as a reference, the plate was read using a fluorescence plate reader (Synergy 4) at an absorbance of 650 nm.

In the case of CCCCCCCCCCCCCC(=O)O[C@H](CCCCCCCCCCC)CC(=O)N[C@H]1[C@H](OC[C@H]2O[C@H](O)[C@H](NC(=O)C[C@H](O)CCCCCCCCCCC)[C@@H](OC(=O)C[C@H](O)CCCCCCCCCCC)[C@@H]2O)O[C@H](CO)[C@@H](OP(=O)(O)O)[C@@H]1OC(=O)C[C@@H](CCCCCCCCCCC)OC(=O)CCCCCCCCCCCCC.N [GLA alone, glycopyranoside lipid A], the “passage through sterile filter” value [1] is reported as “removed by sterile filtration” and the “activation of HEK hTLR4 cells” value [2] is reported as “failed to activate; also recorded: does not”.
